One experiment deals with FFAR1 A83F (Homo sapiens, UniProt O14842, A83F). The experiment can be described thus: Mutagenesis, IP accumulation, FFAR1 A83F mutant. Type of experiment: cell-based.
The subject of a further experiment is FFAR1 K259A. The experiment can be described thus: Mutagenesis, IP accumulation, FFAR1 K259A mutant. Type of experiment: cell-based, human.
In experiment [1] the test system is FFAR1 mutants (Y12, E65, A66, K259, L262). The experiment can be described thus: Mutagenesis of the extracellular binding site, IP accumulation. Type of experiment: cell-based, human.
The next experiment addresses T1, FFAR4 (Homo sapiens, UniProt Q5NUL3).
T1 sequence (Q5NUL3 1-361): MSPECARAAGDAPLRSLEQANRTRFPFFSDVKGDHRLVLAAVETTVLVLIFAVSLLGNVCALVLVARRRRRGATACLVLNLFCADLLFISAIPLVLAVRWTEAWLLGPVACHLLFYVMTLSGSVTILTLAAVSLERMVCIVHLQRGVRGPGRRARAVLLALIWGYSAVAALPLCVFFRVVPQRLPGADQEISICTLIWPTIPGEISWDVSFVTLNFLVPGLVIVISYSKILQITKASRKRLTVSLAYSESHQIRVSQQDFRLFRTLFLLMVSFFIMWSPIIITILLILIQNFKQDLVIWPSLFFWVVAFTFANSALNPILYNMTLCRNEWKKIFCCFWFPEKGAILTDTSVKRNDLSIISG
Put plainly: IP accumulation assay in transiently transfected COS7 cells, FFAR4. Type of experiment: cell-based.

The target of a further experiment is FFAR1 (Homo sapiens, UniProt O14842). The experiment can be described thus: IP accumulation assay in transiently transfected COS7 cells, FFAR1. Particulars: for improved potency on FFAR1: as compared to the unsubstituted phenyl 54; for improved potency on FFAR1 / reduction of potency on FFAR1: range for the group. Type of experiment: cell-based.
Sequence of FFAR1 (O14842 whole entry): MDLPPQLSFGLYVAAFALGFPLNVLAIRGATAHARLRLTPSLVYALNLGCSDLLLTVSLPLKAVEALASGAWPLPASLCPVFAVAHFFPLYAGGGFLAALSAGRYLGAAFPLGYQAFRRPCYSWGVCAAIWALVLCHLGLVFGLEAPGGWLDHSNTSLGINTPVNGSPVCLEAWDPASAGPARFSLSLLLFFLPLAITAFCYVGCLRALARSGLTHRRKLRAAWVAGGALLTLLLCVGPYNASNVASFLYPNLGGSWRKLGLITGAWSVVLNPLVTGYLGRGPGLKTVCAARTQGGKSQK

Sequence of FFAR1 A83F (O14842 whole entry A83F): as the sequence (O14842 whole entry) above, with A83F counted along it

`COc1ccc(F)c(-c2ccc(COc3ccc4c(c3)[C@]3(CC4)C[C@H]3C(=O)O)cc2[C@@H]2CCCC2(C)C)c1` [AM-5262]: the “impact of A83F mutation on activity” value at FFAR1 A83F is “none”. Besides, in the experiment with FFAR1 K259A, the “change in efficacy, K259A versus wild-type” value was −32%. Moreover, the “effect of extracellular-site mutations on activity” value in experiment [1] is on record as “no effect on compound potency”.

With `Cc1cc(=O)oc2cc(OCc3nc(N)nc(Nc4ccc(C5CC5)cc4)n3)ccc12` [compound 7], at FFAR4, the “activity on FFAR4” value was “entirely inactive on FFAR4”.

As to `Cc1ccc(Nc2nc(N)nc(COc3ccc4c(C)cc(=O)oc4c3)n2)cc1C` [compound 13], the “activity on FFAR4” value on FFAR4 is “entirely inactive on FFAR4”.

For the compound `Cc1cc(=O)oc2cc(OCc3nc(N)nc(Nc4cccc(O)c4)n3)ccc12` [compound 17], the “activity on FFAR1” value on FFAR1 is “inactive”.

For `Cc1cc(=O)oc2cc(OCc3nc(N)nc(Nc4ccc(O)cc4)n3)ccc12` [compound 18], the “activity on FFAR1” value on FFAR1 is “inactive”.

Take `Cc1ccc(Nc2nc(N)nc(COc3cccc(N4CCCC4=O)c3)n2)cc1Cl` [compound 28]: the “loss of potency on FFAR1” value on FFAR1 (versus 4-methylchroman-2-one compound 11) is given as approximately 6 fold.

For the compound `Cc1ccc(Nc2nc(N)nc(COc3cc(N4CCCC4=O)cc(C(F)(F)F)c3)n2)cc1Cl` [compound 38], the “selectivity for FFAR1 over FFAR4” value on FFAR1 was “selective”.

For `Cc1ccc(Nc2nc(N)nc(COc3cc(Cl)cc(N4CCCC4=O)c3)n2)cc1Cl` [compound 42], the “gain of potency on FFAR1” value at FFAR1 (versus compound 28) was determined as 5 fold.

Turning to `Cc1ccc(Nc2nc(N)nc(COc3cc(OC(F)(F)F)cc(N4CCCC4=O)c3)n2)cc1Cl` [compound 46], the “selectivity for FFAR4 over FFAR1” value on FFAR4 is reported as “selective”.

On to `Cc1cc(OCc2nc(N)nc(NCCc3ccccc3)n2)cc(N2CCCC2=O)c1` [compound 54], for which the “increase of efficacy on FFAR1” value on FFAR1 (as compared to compound 43) was 44%.

As for `Cc1cc(OCc2nc(N)nc(NCCc3cccc(Cl)c3)n2)cc(N2CCCC2=O)c1` [compound 58], the “improved potency on FFAR1” value at FFAR1 is 2–8 fold.

`Cc1cccc(CCNc2nc(N)nc(COc3cc(C)cc(N4CCCC4=O)c3)n2)c1` [compound 59]: the “improved potency on FFAR1” value on FFAR1 is listed as 2–8 fold.

For `COc1cccc(CCNc2nc(N)nc(COc3cc(C)cc(N4CCCC4=O)c3)n2)c1` [compound 60], the “improved potency on FFAR1” value on FFAR1 is reported as 2–8 fold.

With `Cc1cc(OCc2nc(N)nc(NCCc3cccc(C(F)(F)F)c3)n2)cc(N2CCCC2=O)c1` [compound 61], at FFAR1, the “improved potency on FFAR1” value is reported as 2–8 fold.

For `Cc1cc(OCc2nc(N)nc(NCCc3cccc(OC(F)F)c3)n2)cc(N2CCCC2=O)c1` [compound 62], at FFAR1, the “improved potency on FFAR1” value was 2–8 fold.

As for `Cc1cc(OCc2nc(N)nc(NCCc3ccccc3F)n2)cc(N2CCCC2=O)c1` [compound 70], the “selectivity for FFAR1 over FFAR4” value at FFAR1 was “highly selective for FFAR1”.

Turning to `Cc1cc(OCc2nc(N)nc(NCCc3ccccc3N3CCOCC3)n2)cc(N2CCCC2=O)c1` [compound 74], on FFAR4, the “selectivity for FFAR4 over FFAR1” value is given as “FFAR4-selective”. On FFAR1, the “activity on FFAR1” value was “entirely inactive”.

Consider `Cc1cc(OCc2nc(N)nc(NCCc3cc(F)ccc3F)n2)cc(N2CCCC2=O)c1` [compound 75], for which the “loss of efficacy on FFAR1” value at FFAR1 (versus compound 54) is listed as −26%.

`Cc1cc(OCc2nc(N)nc(NCCc3cc(C)ccc3F)n2)cc(N2CCCC2=O)c1` [compound 76]: the “selectivity for FFAR1 over FFAR4” value at FFAR1 is reported as “highly selective for FFAR1”.

In the case of `Cc1cc(OCc2nc(N)nc(NCCc3cc(Cl)ccc3Cl)n2)cc(N2CCCC2=O)c1` [compound 83], the “effect of extracellular-site mutations on activity” value in experiment [1] is “profound effect”.

As to `Cc1cc(OCc2nc(N)nc(NCCc3ccc(Cl)cc3Cl)n2)cc(N2CCCC2=O)c1` [compound 84], at FFAR1 (versus compound 54), the “reduction of potency on FFAR1” value is reported as 2−3 fold.

Consider `Cc1cc(OCc2nc(N)nc(NCCc3ccc(C)cc3C)n2)cc(N2CCCC2=O)c1` [compound 85], for which the “reduction of potency on FFAR1” value on FFAR1 (versus compound 54) is recorded as 2−3 fold.

With `COc1ccc(Cl)cc1CCNc1nc(N)nc(COc2cc(C)cc(N3CCCC3=O)c2)n1` [compound 86], the “reduction of potency on FFAR1” value at FFAR1 (versus compound 54) is 2−3 fold.

Take `Cc1cc(OCc2nc(N)nc(NCCc3c(C)cccc3C)n2)cc(N2CCCC2=O)c1` [compound 87]: at FFAR1 (versus compound 54), the “reduction of potency on FFAR1” value was 2−3 fold.

For the compound `Cc1cc(OCc2nc(N)nc(NCC3(c4cccc(Cl)c4)CC3)n2)cc(N2CCCC2=O)c1` [compound 90], the “activity on FFAR4” value on FFAR4 is given as “loss of activity on FFAR4”.

Consider `Cc1cc(OCc2nc(N)nc(NC3(Cc4cccc(Cl)c4)CC3)n2)cc(N2CCCC2=O)c1` [compound 92], for which the “activity on FFAR4” value at FFAR4 is given as “loss of activity on FFAR4”.

Regarding `Cc1cc(OCc2nc(N)nc(NCC(c3c(F)cccc3F)N(C)C)n2)cc(N2CCCC2=O)c1` (centres unmarked) [compound 93], the “activity on FFAR4” value on FFAR4 is given as “loss of activity on FFAR4”.

As for `Cc1cc(OCc2nc(N)nc(NCC(c3cccc(Cl)c3)N3CCCC3)n2)cc(N2CCCC2=O)c1` (centres unmarked) [compound 94], at FFAR4, the “activity on FFAR4” value was “loss of activity on FFAR4”.

As to `Cc1cc(OCc2nc(N)nc(NCCc3cccc4c3OC(F)(F)O4)n2)cc(N2CCCC2=O)c1` [compound 101], the “selectivity for FFAR1 over FFAR4” value at FFAR1 is recorded as “highly FFAR1-selective”.
